Data set [1] concerns Puccinia triticina. Kind of data set: Wheat brown rust (PUCCRT) fungicidal activity on wheat seedlings. It counts as in vivo. As for the experimental part:
Technical grades of materials were dissolved in acetone, which were then mixed with nine volumes of water containing 110 ppm Triton X-100. The fungicide solutions were applied onto wheat seedlings using an automated booth sprayer to run-off. All sprayed plants were allowed to air dry prior to further handling. Wheat plants (variety Yuma) were grown from seed in a greenhouse in 50% mineral soil/50% soil-less Metro mix until the first leaf was fully emerged, with 7-10 seedlings per pot. These plants were inoculated with an aqueous spore suspension of Septoria tritici either prior to or after fungicide treatments. After inoculation the plants were kept in 100% relative humidity (one day in a dark dew chamber followed by two to three days in a lighted dew chamber at 20° C.) to permit spores to germinate and infect the leaf. The plants were then transferred to a greenhouse set at 20° C. for disease to develop. When disease symptoms were fully expressed on the 1st leaves of untreated plants, infection levels were assessed on a scale of 0 to 100 percent disease severity. Percent disease control was calculated using the ratio of disease severity on treated plants relative to untreated plants. Evaluation of Fungicidal Activity: Wheat Brown Rust (Puccinia triticina; Synonym: Puccinia recondita f. sp. tritici; Bayer Code PUCCRT) Wheat plants (variety Yuma) were grown from seed in a greenhouse in 50% mineral soil/50% soil-less Metro mix until the first leaf was fully emerged, with 7-10 seedlings per pot. These plants were inoculated with an aqueous spore suspension of Puccinia triticina either prior to or after fungicide treatments. After inoculation the plants were kept in a dark dew room at 22° C. with 100% relative humidity overnight to permit spores to germinate and infect the leaf. The plants were then transferred to a greenhouse set at 24° C. for disease to develop. Fungicide formulation, application and disease assessment followed the procedures as described in the Example A.

The subject of data set [2] is Mycosphaerella graminicola; Anamorph: Septoria tritici. Nature of the data set: Leaf blotch of wheat (SEPTTR) fungicidal activity on wheat seedlings. It counts as in vivo. The note with it: Zymoseptoria tritici. As for the experimental part: Evaluation of Fungicidal Activity: Leaf Blotch of Wheat (Mycosphaerella Graminicola; Anamorph: Septoria tritici; Bayer Code […]) Technical grades of materials were dissolved in acetone, which were then mixed with nine volumes of water containing 110 ppm Triton X-100. The fungicide solutions were applied onto wheat seedlings using an automated booth sprayer to run-off. All sprayed plants were allowed to air dry prior to further handling. Wheat plants (variety Yuma) were grown from seed in a greenhouse in 50% mineral soil/50% soil-less Metro mix until the first leaf was fully emerged, with 7-10 seedlings per pot. These plants were inoculated with an aqueous spore suspension of Septoria tritici either prior to or after fungicide treatments. After inoculation the plants were kept in 100% relative humidity (one day in a dark dew chamber followed by two to three days in a lighted dew chamber at 20° C.) to permit spores to germinate and infect the leaf. The plants were then transferred to a greenhouse set at 20° C. for disease to develop. When disease symptoms were fully expressed on the 1st leaves of untreated plants, infection levels were assessed on a scale of 0 to 100 percent disease severity. Percent disease control was calculated using the ratio of disease severity on treated plants relative to untreated plants.

Data set [3] has as its system Puccinia triticina. Kind of data set: Fungicide mobility (dropline mobility test), wheat brown rust (PUCCRT). It counts as in vivo. Conditions: 1 ug/leaf, disease-free zone as percent of distance from marked line to leaf tip; for Dropline Mobility Test PUCCRT 1 DPM: 1 Day Protectant Mobility; for Dropline Mobility Test PUCCRT 3 DCM: 3 Day Curative Mobility. As for the experimental part:
Evaluation of Fungicide Mobility: Wheat Brown Rust (Puccinia Triticina; Synonym: Puccinia recondita f. sp. Tritici; Bayer Code PUCCRT):
“Yuma” wheat seedlings were used in the test. One mg of compound was dissolved in 9 μl of EC blank (emulsifiable concentrate) and 500 μl of acetone. Acetone was then evaporated overnight by leaving the vial open in a fume hood. Two milliliters of water containing 110 ppm Triton X-100 was added to each vial to prepare application solutions. A […] drop of formulated material was applied to a marked line on the adaxial surface 5 cm from the leaf tip of the primary leaves. The primary leaves were kept in a horizontal position. Each treatment had 6 replicates. Plants were inoculated with PUCCRT 1-day after (1DPM) or 3-day prior to (3DCM) compound applications. When rust was fully expressed on primary leaves on control plants, the zone of treated leaves that was disease-free in the acropetal direction was measured with a ruler and converted to percent of the distance from marked line to leaf tip.

The mark [4] stands for this setting: 24 h, 1 Day Protectant, read-out: Disease Control PUCCRT 1 DP.
Setting [5] is: 72 h, 3 Day Curative, read-out: Disease Control PUCCRT 3 DC.
The mark [6] stands for this setting: 24 h, 1 Day Protectant, read-out: Disease Control SEPTTR 1 DP.
[7] abbreviates: 72 h, 3 Day Curative, read-out: Disease Control SEPTTR 3 DC.

Like-named read-outs stand apart in the source and are kept apart here.

In general, melting point refers to the temperature, or range, at which the solid turns liquid. The molecule `CCCO[C@@H]1[C@@H](Cc2ccccc2)COC[C@H](NC(=O)c2nccc(OC)c2O)C(=O)O[C@H]1C` [Compound 17] showed a melting point of 102 to 104 °C. In addition, the pest or weed control at 100 ppm in the data set with Puccinia triticina [1] (setting [4]) fell in the range of 80 to 100%. Further, the pest or weed control at 100 ppm in the data set on Puccinia triticina [1] (setting [5]) lay in the range of 80 to 100%. The pest or weed control at 100 ppm in data set [2] (setting [6]) was 80 to 100%. Besides, in data set [2] (setting [7]), the pest or weed control at 100 ppm was in the range of 80 to 100%. Moreover, in the data set on Puccinia triticina [3], the “Dropline Mobility Test PUCCRT 1 DPM” value is on record as “B (More than 0-Less than 80)” and the “Dropline Mobility Test PUCCRT 3 DCM” value was “B (More than 0-Less than 80)”.
In the case of `CCCC(C)O[C@@H]1[C@@H](Cc2ccccc2)COC[C@H](NC(=O)c2nccc(OC)c2O)C(=O)O[C@H]1C` (some centres unmarked) [Compound 19], the melting point lay in the range of 52 to 56 °C. In addition, the pest or weed control at 100 ppm in the data set on Puccinia triticina [1] (setting [4]) lay within 80 to 100%. Further, the pest or weed control at 100 ppm with Puccinia triticina [1] (setting [5]) is 80 to 100%. Further, the pest or weed control at 100 ppm in data set [2] (setting [6]) lay in the range of 80 to 100%. Moreover, the pest or weed control at 100 ppm in data set [2] (setting [7]) was in the range of 80 to 100%. In the data set with Puccinia triticina [3], the “Dropline Mobility Test PUCCRT 1 DPM” value is reported as “B (More than 0-Less than 80)”.
`CCCCCO[C@@H]1[C@@H](Cc2ccccc2)COC[C@H](NC(=O)c2nccc(OC)c2O)C(=O)O[C@H]1C` [Compound 21] came in with a melting point of 51 to 56 °C. The pest or weed control at 100 ppm in the data set on Puccinia triticina [1] (setting [4]) lay in the range of 80 to 100%. In the data set on Puccinia triticina [1] (setting [5]), the pest or weed control at 100 ppm fell in the range of 0 to 80%. Further, the pest or weed control at 100 ppm in data set [2] (setting [6]) is 0 to 80%. In data set [2] (setting [7]), the pest or weed control at 100 ppm fell in the range of 0 to 80%. Also, the “Dropline Mobility Test PUCCRT 1 DPM” value with Puccinia triticina [3] is recorded as “B (More than 0-Less than 80)”.
`COc1ccnc(C(=O)N[C@H]2COC[C@H](Cc3ccccc3)[C@@H](OC)[C@H](C)OC2=O)c1O` [Compound 32] returned a melting point of 57 to 70 °C. Besides, the pest or weed control at 100 ppm in the data set on Puccinia triticina [1] (setting [4]) was in the range of 80 to 100%. In the data set on Puccinia triticina [1] (setting [5]), the pest or weed control at 100 ppm lay in the range of 0 to 80%. Moreover, the pest or weed control at 100 ppm in data set [2] (setting [6]) lay in the range of 0 to 80%. Besides, the pest or weed control at 100 ppm in data set [2] (setting [7]) is 80 to 100%. In addition, in the data set on Puccinia triticina [3], the “Dropline Mobility Test PUCCRT 1 DPM” value is recorded as “B (More than 0-Less than 80)” and the “Dropline Mobility Test PUCCRT 3 DCM” value is “B (More than 0-Less than 80)”.

These data come from patent publication US8835462B2, “Macrocyclic picolinamides as fungicides” (Dow AgroSciences LLC, priority 2012, dated 2014).
